Data from patent US11484608B2, “Non-invasive assessment of hepatic mitochondrial metabolism by positional isotopomer NMR tracer analysis (PINTA)” (YALE UNIVERSITY, priority 2017, dated 2022).

Assays:
[1] = tested on: hepatic mitochondrial oxidation, NAFLD, glucose tolerance; test: Chronic 10-day glucagon infusion in high fat fed rats; format: in vivo, rat
Protocol: During week 3 of the diet, rats underwent surgery under isoflurane anesthesia to place catheters in the jugular vein and carotid artery, and recovery was confirmed by regaining the pre-surgical body weight prior to in vivo studies. […] Rats were fasted for 8 hr prior to sacrifice with IV pentobarbital.
In the rat studies, blood was collected from the jugular venous catheter. In both species, samples were immediately centrifuged (12,000 rpm) to separate plasma from red blood cells. PINTA analysis of hepatic mitochondrial fluxes was employed in both rats and mice (see Example 1). Briefly, mice were infused with a two-hour primed (5 min, 3×)-continuous infusion of [3-^13C] lactate (40 μmol kg^−1 min^−1) and [1,2,3,4,5,6,6-^2H7] glucose (0.1 mg kg^−1 min^−1). Rats were infused with lactate at the same rate, as well as [3-^3H] glucose (0.1 mCi kg^−1 min^−1). At the conclusion of the study, animals were euthanized with IV pentobarbital.
(§1) In the glucose tolerance tests, rodents were injected with 1 g kg^−1 50% dextrose (rats) or 10% dextrose (mice) intraperitoneally. Blood samples were taken through the venous catheter (rats) or by tail bleeding (mice) for measurement of plasma glucose and insulin concentrations as described below (Biochemical analysis).
Plasma glucose concentrations were measured using a YSI Glucose Analyzer. […] Plasma NEFA concentrations were measured using the Wako NEFA assay, while plasma glycerol and plasma and liver amino acid concentrations were measured by GC/MS. […] Protein concentrations were measured by Western blot, using antibodies from Santa Cruz (PC, PEPCK, CAMKII), Cell Signaling (ATGL, pCAMKIV, CAMKIV, pCRTC2, CRTC2, pACC, ACC, pAMPK, AMPK, pHSL, HSL, GAPDH, and β-actin), Novus Biologicals (pCAMKII), Abcam (pATGL), LSBio (pInsP3R-I), and BD Transduction Laboratories (InsP3R-II, InsP3R-III, PKCε). The antibody to pATGL was kindly provided by Dr. Hei Sook Sul, while the antibody to total InsP3R-I was custom-made using an epitope against the last 18 amino acids of InsP3R-I. Gluconeogenic gene mRNA expression was measured by qPCR^45 using primers sequences as follows: […]

[2] = tested on: NAFLD and glucose tolerance (InsP3R-I dependent); test: Chronic 3.5 week glucagon infusion in high fat fed WT and InsP3R-I KO mice; format: in vivo, mouse
Protocol: They underwent CLAMS metabolic cage analysis to assess energetics and food and water intake during the second week of glucagon infusion. […] 48 hr later, after a 6 hr fast, they were sacrificed under isoflurane anesthesia for measurement of hepatic lipid content as described below.
as §1
Plasma glucose concentrations were measured using a YSI Glucose Analyzer. […] Plasma NEFA concentrations were measured using the Wako NEFA assay, while plasma glycerol and plasma and liver amino acid concentrations were measured by GC/MS. Liver acetyl- and malonyl-CoA (standard curve R^2=0.999 and 0.999), long-chain CoA, DAG, and ceramide concentrations were measured by LC-MS/MS, hepatic glycogen content following amyloglucosidase digestion, and TAG concentrations enzymatically. cAMP concentrations were measured using the Enzo Life Sciences Direct cAMP ELISA. Protein concentrations were measured by Western blot, using antibodies from Santa Cruz (PC, PEPCK, CAMKII), Cell Signaling (ATGL, pCAMKIV, CAMKIV, pCRTC2, CRTC2, pACC, ACC, pAMPK, AMPK, pHSL, HSL, GAPDH, and β-actin), Novus Biologicals (pCAMKII), Abcam (pATGL), LSBio (pInsP3R-I), and BD Transduction Laboratories (InsP3R-II, InsP3R-III, PKCε). The antibody to pATGL was kindly provided by Dr. Hei Sook Sul, while the antibody to total InsP3R-I was custom-made using an epitope against the last 18 amino acids of InsP3R-I. Gluconeogenic gene mRNA expression was measured by qPCR^45 using primers sequences as follows: […]

[3] = HFD rats, two hours after withdrawal of glucagon infusion
[4] = intraperitoneal glucose tolerance test, HFD rats
[5] = rat liver, chronic glucagon infusion
[6] = rats, chronic glucagon infusion

glucagon
food intake, body weight, and hepatic ceramide content ([1]; HFD rats, chronic glucagon): similar
hepatic VPK flux ([1]; HFD rats, chronic glucagon): did not change
hepatic VPK flux as proportion of hepatic VPC flux ([1]; HFD rats, chronic glucagon): 15-20%
liver glycogen content ([1]; HFD rats, chronic glucagon): reductions
protein kinase C-epsilon (PKCε) translocation ([1]; HFD rats, chronic glucagon): marked reductions
reductions in hepatic triglyceride and diacylglycerol concentrations ([1]; HFD rats, chronic glucagon): 50-90%
hepatic acetyl- and malonyl-CoA content ([1]; HFD rats, glucagon withdrawn four hours before sacrifice): suppression
increase in rates of hepatic mitochondrial oxidation ([1]; HFD rats, ten days glucagon 5 ng kg^−1 min^−1): two-fold
reductions in fasting plasma glucose [1, 3]: 1.4 mM
reductions in fasting plasma insulin concentrations [1, 3]: 50%
reduction in glucose area under the curve [1, 4]: 20%
reduction in insulin area under the curve [1, 4]: 60%
Cytosolic DAG C16, C16 [1, 5]: 1.8 ± 0.2 nmol/g
Cytosolic DAG C16, C18_2 [1, 5]: 7.2 ± 1.0 nmol/g
Cytosolic DAG C16 C20_4 [1, 5]: 0.5 ± 0.1 nmol/g
Cytosolic DAG C18, C16 [1, 5]: 1.7 ± 0.1 nmol/g
Cytosolic DAG C18, C18 [1, 5]: 5.6 ± 0.6 nmol/g
Cytosolic DAG C18 C20_4 [1, 5]: 13.6 ± 1.1 nmol/g
Cytosolic DAG C18_1, C18 [1, 5]: 0.6 ± 0.1 nmol/g
Cytosolic DAG C18_1, C18_1 [1, 5]: 4.2 ± 0.5 nmol/g
Cytosolic DAG C18_1, C18_2 [1, 5]: 4.0 ± 0.5 nmol/g
Cytosolic DAG C18_1 C16 [1, 5]: 5.3 ± 0.9 nmol/g
Cytosolic DAG C18_2, C18 [1, 5]: 0.9 ± 0.1 nmol/g
Cytosolic DAG C18_2, C18_2 [1, 5]: 3.6 ± 0.6 nmol/g
Cytosolic DAG C20_4 C20_5 [1, 5]: 0.5 ± 0.1 nmol/g
Cytosolic DAG Total DAG [1, 5]: 38.3 ± 3.1 nmol/g
Membrane DAG C16, C16 [1, 5]: 10.2 ± 2.6 nmol/g
Membrane DAG C16, C18_2 [1, 5]: 97.3 ± 13.4 nmol/g
Membrane DAG C16 C20_4 [1, 5]: 4.2 ± 0.7 nmol/g
Membrane DAG C18, C16 [1, 5]: 4.9 ± 0.5 nmol/g
Membrane DAG C18, C18 [1, 5]: 6.5 ± 0.5 nmol/g
Membrane DAG C18 C20_4 [1, 5]: 21.5 ± 2.4 nmol/g
Membrane DAG C18_1, C18 [1, 5]: 3.6 ± 0.4 nmol/g
Membrane DAG C18_1, C18_1 [1, 5]: 44.1 ± 7.2 nmol/g
Membrane DAG C18_1, C18_2 [1, 5]: 58.7 ± 7.8 nmol/g
Membrane DAG C18_1 C16 [1, 5]: 50.0 ± 9.0 nmol/g
Membrane DAG C18_2, C18 [1, 5]: 7.8 ± 0.7 nmol/g
Membrane DAG C18_2, C18_2 [1, 5]: 44.0 ± 10.7 nmol/g
Membrane DAG Total DAG [1, 5]: 364.0 ± 44.7 nmol/g
Ceramide C16 [1, 6]: 40.1 ± 10.2 nmol/g
Ceramide C18 [1, 6]: 7.1 ± 1.4 nmol/g
Ceramide C20 [1, 6]: 15.9 ± 3.7 nmol/g
Ceramide C22 [1, 6]: 26.9 ± 5.2 nmol/g
Ceramide C24 [1, 6]: 52.8 ± 10.9 nmol/g
Ceramide C24:1 [1, 6]: 15.2 ± 3.9 nmol/g
Total ceramide [1, 6]: 158.0 ± 33.4 nmol/g
increases in hepatic mitochondrial fat oxidation (VFAO) ([1]; short-term continuous glucagon treatment): two-fold
hepatic lipid content or glucose tolerance ([2]; diet-induced obese InsP3R-I KO mice): did not manifest any alterations
body weight, food and water intake, activity and energy expenditure ([2]; diet-induced obese WT mice): unchanged
glucose tolerance ([2]; diet-induced obese WT mice): marked improvement
hepatic ceramide concentrations ([2]; diet-induced obese WT mice): without any alterations
reductions in liver triglyceride and diacylglycerol content and PKCε translocation ([2]; diet-induced obese WT mice, four-week continuous glucagon infusion): 50-80%
